The text below walks through data of patent publication US9518052B2, “Pyrazolopyridines and pyrazolopyrimidines” (Pfizer Inc., priority 2014, dated 2016).

Holding throughout (assay type): biochemical
What all share (conditions): Caliper assay at 1 mM ATP

The target of experiment [1] is JAK3 (Homo sapiens (Human), UniProt P52333). Kind of experiment: JAK Caliper Enzyme Assay at 1 mM ATP (JAK3).
Experiment [2] has as its target JAK2 (Homo sapiens (Human), UniProt O60674). Kind of experiment: JAK Caliper Enzyme Assay at 1 mM ATP (JAK2).
Experiment [3] concerns the target JAK1 (Homo sapiens (Human), UniProt P23458). Kind of experiment: JAK Caliper Enzyme Assay at 1 mM ATP (JAK1).
Experiment [4] has as its target TYK2 (Homo sapiens (Human), UniProt P29597). Kind of experiment: JAK Caliper Enzyme Assay at 1 mM ATP (TYK2).

Where a name gives a salt, the structure may show the parent alone.

JAK3, sequence (P52333 whole entry, species assumed): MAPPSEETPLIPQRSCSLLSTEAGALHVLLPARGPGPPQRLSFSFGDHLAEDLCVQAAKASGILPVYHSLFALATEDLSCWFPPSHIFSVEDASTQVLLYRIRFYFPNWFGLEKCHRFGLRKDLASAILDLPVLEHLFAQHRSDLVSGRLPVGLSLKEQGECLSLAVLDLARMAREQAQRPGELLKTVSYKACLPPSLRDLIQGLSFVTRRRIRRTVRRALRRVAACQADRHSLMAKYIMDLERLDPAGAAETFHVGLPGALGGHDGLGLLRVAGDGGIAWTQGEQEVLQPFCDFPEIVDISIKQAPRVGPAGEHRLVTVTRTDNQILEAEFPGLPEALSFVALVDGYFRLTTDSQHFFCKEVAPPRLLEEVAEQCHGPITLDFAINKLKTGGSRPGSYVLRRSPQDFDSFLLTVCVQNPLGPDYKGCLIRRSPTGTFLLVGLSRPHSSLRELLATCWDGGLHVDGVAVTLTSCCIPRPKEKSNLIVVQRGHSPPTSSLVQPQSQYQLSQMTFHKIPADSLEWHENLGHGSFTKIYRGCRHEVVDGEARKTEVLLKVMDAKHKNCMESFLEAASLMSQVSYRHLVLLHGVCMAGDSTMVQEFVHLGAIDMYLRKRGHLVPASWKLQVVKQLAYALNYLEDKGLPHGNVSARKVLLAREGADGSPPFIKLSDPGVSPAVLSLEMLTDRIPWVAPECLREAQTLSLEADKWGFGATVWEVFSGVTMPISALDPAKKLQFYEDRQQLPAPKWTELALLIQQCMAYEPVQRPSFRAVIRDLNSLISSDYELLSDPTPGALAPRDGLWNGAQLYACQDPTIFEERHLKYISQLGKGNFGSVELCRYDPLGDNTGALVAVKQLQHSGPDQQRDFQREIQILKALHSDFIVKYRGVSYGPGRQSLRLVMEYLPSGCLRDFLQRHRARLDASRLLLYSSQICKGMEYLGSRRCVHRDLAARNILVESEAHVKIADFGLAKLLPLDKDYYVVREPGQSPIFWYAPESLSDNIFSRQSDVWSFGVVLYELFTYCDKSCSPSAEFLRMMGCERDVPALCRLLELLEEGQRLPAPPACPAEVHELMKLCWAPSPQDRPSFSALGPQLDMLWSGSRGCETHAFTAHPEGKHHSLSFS
JAK2, sequence (O60674 whole entry, species assumed): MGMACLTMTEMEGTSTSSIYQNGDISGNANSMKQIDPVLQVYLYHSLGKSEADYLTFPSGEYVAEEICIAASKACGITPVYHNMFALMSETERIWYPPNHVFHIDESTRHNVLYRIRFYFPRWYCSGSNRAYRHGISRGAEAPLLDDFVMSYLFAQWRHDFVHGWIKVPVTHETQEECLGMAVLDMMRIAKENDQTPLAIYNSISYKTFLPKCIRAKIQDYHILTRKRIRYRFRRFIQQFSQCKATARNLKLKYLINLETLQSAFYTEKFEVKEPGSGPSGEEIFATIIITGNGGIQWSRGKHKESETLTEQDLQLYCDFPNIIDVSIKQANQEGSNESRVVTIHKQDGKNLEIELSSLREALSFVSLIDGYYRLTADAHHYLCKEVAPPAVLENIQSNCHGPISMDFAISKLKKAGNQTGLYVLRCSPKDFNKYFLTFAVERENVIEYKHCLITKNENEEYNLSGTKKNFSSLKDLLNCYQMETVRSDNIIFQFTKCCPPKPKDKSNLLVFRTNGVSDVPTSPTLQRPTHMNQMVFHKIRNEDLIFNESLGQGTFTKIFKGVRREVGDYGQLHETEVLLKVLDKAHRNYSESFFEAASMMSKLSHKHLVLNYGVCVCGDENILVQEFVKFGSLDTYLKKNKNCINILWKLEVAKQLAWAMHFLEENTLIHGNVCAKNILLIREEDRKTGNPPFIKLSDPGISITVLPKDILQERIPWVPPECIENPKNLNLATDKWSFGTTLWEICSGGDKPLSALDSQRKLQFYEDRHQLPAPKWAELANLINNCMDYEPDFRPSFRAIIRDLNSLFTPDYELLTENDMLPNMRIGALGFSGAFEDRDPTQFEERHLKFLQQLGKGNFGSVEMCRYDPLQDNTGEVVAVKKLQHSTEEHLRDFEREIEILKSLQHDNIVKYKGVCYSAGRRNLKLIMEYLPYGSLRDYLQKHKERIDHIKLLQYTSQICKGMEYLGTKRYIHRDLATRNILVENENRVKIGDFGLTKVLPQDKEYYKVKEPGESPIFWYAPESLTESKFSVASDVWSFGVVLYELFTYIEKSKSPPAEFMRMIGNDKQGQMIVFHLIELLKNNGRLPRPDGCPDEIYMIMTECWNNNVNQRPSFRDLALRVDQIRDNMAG
TYK2, sequence (P29597 whole entry, species assumed): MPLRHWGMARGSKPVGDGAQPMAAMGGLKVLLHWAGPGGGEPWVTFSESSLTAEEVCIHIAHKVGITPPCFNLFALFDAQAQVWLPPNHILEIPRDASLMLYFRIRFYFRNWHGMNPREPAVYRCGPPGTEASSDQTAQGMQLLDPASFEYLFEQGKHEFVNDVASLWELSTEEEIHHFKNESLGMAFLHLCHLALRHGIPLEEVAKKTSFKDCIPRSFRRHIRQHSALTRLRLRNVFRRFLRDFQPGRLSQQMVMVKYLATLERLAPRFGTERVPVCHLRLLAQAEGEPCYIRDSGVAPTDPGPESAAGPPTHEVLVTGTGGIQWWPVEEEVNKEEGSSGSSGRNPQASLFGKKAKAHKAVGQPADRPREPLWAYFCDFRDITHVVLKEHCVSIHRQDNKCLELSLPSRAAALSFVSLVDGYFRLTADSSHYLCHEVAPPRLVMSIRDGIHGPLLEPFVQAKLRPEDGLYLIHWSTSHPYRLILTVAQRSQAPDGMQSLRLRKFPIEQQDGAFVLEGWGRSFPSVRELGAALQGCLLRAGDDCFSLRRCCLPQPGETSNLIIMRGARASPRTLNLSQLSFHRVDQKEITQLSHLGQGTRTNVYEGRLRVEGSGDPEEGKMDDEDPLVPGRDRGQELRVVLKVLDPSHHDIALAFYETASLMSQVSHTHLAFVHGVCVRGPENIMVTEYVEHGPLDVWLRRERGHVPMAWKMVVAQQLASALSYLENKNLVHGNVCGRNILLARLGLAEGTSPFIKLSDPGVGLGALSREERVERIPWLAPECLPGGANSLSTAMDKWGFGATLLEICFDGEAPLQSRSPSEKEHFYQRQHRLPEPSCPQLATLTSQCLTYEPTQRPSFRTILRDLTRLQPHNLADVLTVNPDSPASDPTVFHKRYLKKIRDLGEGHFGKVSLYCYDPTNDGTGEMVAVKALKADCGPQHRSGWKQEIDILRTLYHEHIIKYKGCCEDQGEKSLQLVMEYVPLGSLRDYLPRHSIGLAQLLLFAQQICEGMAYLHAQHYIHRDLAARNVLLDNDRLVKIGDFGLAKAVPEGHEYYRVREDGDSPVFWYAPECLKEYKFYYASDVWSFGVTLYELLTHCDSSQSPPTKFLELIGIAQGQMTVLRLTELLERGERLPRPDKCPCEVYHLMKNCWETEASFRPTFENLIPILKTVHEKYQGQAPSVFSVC
JAK1, sequence (P23458 whole entry, species assumed): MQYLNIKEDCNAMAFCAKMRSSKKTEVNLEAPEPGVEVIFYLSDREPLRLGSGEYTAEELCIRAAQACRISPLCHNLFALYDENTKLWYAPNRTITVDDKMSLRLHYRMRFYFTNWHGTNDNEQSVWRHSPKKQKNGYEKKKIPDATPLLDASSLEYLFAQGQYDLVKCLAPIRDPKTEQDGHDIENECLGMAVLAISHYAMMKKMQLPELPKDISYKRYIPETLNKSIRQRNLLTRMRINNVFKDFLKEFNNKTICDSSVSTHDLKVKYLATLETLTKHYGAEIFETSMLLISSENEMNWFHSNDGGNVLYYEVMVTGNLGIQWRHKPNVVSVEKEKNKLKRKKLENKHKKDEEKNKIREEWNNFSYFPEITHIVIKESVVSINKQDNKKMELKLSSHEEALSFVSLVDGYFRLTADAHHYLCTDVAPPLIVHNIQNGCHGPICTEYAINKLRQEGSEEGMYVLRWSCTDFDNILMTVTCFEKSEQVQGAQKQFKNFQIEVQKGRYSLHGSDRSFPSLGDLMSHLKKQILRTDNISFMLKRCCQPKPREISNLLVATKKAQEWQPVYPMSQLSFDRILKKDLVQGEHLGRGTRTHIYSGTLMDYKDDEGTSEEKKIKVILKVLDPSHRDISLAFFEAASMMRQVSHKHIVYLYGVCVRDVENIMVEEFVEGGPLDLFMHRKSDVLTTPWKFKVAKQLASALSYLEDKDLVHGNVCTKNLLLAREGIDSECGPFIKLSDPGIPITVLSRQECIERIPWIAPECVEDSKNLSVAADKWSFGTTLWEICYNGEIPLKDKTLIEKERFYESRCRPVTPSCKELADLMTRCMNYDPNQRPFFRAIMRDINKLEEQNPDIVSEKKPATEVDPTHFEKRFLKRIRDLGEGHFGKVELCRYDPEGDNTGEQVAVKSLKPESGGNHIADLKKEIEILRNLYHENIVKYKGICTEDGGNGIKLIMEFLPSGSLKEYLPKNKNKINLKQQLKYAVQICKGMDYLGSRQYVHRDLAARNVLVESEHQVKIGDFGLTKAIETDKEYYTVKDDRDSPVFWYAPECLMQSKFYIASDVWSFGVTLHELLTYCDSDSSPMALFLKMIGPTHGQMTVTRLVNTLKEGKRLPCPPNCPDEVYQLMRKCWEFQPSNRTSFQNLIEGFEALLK

For the compound `CNC(=O)c1n[nH]c2cc(-c3cc(F)c(O)cc3CC(F)(F)F)nc(NCc3ccccc3N(C)S(=O)(=O)CCOC)c12` [Example 60, 6-[5-fluoro-4-hydroxy-2-(2,2,2-trifluoroethyl)phenyl]-4-[(2-{[(2-methoxyethyl)sulfonyl](methyl)amino}benzyl)amino]-N-methyl-1H-pyrazolo[4,3-c]pyridine-3-carboxamide], the IC50 in experiment [1] is 115 nM; in experiment [2] it was 29.2 nM; in experiment [3], 6.6 nM; in experiment [4], 56.5 nM.
Turning to `CN(c1ccccc1CNc1nc(-c2cc(F)c(O)cc2CC(F)(F)F)cc2[nH]nc(C(N)=O)c12)S(C)(=O)=O` [Example 77, 6-[5-Fluoro-4-hydroxy-2-(2,2,2-trifluoroethyl)phenyl]-4-({2-[methyl(methylsulfonyl)amino]benzyl}amino)-1H-pyrazolo[4,3-c]pyridine-3-carboxamide], the IC50 in experiment [1] came to 63.6 nM; in experiment [2], 15.1 nM; in experiment [3] it was 3.3 nM; in experiment [4] it was 27.1 nM.
For the compound `CCc1cc(O)c(F)cc1-c1cc2[nH]ncc2c(N(C)Cc2ccccc2N(C)S(C)(=O)=O)n1` [Example 146, N-[2-({[6-(2-Ethyl-5-fluoro-4-hydroxyphenyl)-1H-pyrazolo[4,3-c]pyridin-4-yl](methyl)amino}methyl)phenyl]-N-methylmethanesulfonamide hydrochloride], the concentration for half-maximal inhibition (IC50) in experiment [1] was 19.1 nM; in experiment [2] it was 5.1 nM; in experiment [3], 0.9 nM; in experiment [4] it was 49.9 nM.
Consider `CC(CO)CNc1nc(-c2cc(F)c(O)cc2CC(F)(F)F)nc2[nH]nc(-c3nc4c([nH]3)CCN(Cc3ccccc3)C4)c12` (stereo not shown) [Example 173, 4-(3-(5-Benzyl-4,5,6,7-tetrahydro-1H-imidazo[4,5-c]pyridin-2-yl)-4-((3-hydroxy-2-methylpropyl)amino)-1H-pyrazolo[3,4-d]pyrimidin-6-yl)-2-fluoro-5-(2,2,2-trifluoroethyl)phenol], for which the IC50 came out at 134 nM in experiment [1], 50.3 nM in experiment [2], 9.3 nM in experiment [3] and 180 nM in experiment [4].
Consider `CCc1cc(O)c(F)cc1-c1nc(NCc2ccccc2N(C)S(=O)(=O)c2ccccc2)c2c(C(N)=O)n[nH]c2n1` [Example 95, 6-(2-Ethyl-5-fluoro-4-hydroxyphenyl)-4-((2-(N-methylphenylsulfonamido)benzyl)amino)-1H-pyrazolo[3,4-d]pyrimidine-3-carboxamide], for which the IC50 in experiment [1] amounted to 82.4 nM; in experiment [2], 27 nM; in experiment [3], 6.7 nM; in experiment [4], 89.3 nM.
In the same order, the values of `CN(c1ncccc1CNc1nc(-c2cc(F)c(O)cc2CC(F)(F)F)cc2[nH]nc(C(N)=O)c12)S(C)(=O)=O` [Example 62, 6-[5-fluoro-4-hydroxy-2-(2,2,2-trifluoroethyl)phenyl]-4-[({2-[methyl(methyl-sulfonyl)amino]pyridin-3-yl}methyl)amino]-1H-pyrazolo[4,3-c]pyridine-3-carboxamide] are 39.5 nM, 14.4 nM, 2.9 nM and 278 nM.
For `CCN(c1ncccc1CNc1nc(-c2cc(F)c(O)cc2CC(F)(F)F)cc2[nH]nc(C(=O)NC)c12)S(C)(=O)=O` [Example 63, 4-[({2-[ethyl(methylsulfonyl)amino]pyridin-3-yl}methyl)amino]-6-[5-fluoro-4-hydroxy-2-(2,2,2-trifluoroethyl)phenyl]-N-methyl-1H-pyrazolo[4,3-c]pyridine-3-carboxamide], in that order: 82.1 nM, 22.5 nM, 5 nM and 107 nM.
For `CCCN(Cc1cc(C)ccc1N(C)S(C)(=O)=O)c1nc(-c2cc(F)c(O)cc2CC)cc2[nH]ncc12` [Example 144, N-[2-({[6-(2-ethyl-5-fluoro-4-hydroxyphenyl)-1H-pyrazolo[4,3-c]pyridin-4-yl](propyl)amino}-methyl)-4-methylphenyl]-N-methylmethanesulfonamide], in that order: 186 nM, 70.7 nM, 55.3 nM and 8730 nM.
As for `CNC(=O)c1n[nH]c2cc(-c3cc(F)c(O)cc3CC(F)(F)F)nc(NCc3ccccc3N(C)S(=O)(=O)c3ccc(C)nc3)c12` [Example 69, 6-[5-fluoro-4-hydroxy-2-(2,2,2-trifluoroethyl)phenyl]-N-methyl-4-[(2-{methyl[(6-methylpyridin-3-yl)sulfonyl]amino}benzyl)amino]-1H-pyrazolo[4,3-c]pyridine-3-carboxamide], the IC50 in experiment [1] came to 257 nM; in experiment [2], 63.7 nM; in experiment [3], 16.2 nM; in experiment [4] it was 66.8 nM.
Take `CCc1cc(O)c(F)cc1-c1cc2[nH]ncc2c(NCc2cc(Cl)ccc2N(C)S(C)(=O)=O)n1` [Example 133, N-[4-chloro-2-({[6-(2-ethyl-5-fluoro-4-hydroxyphenyl)-1H-pyrazolo[4,3-c]pyridin-4-yl]amino}methyl)phenyl]-N-methylmethanesulfonamide hydrochloride]: the IC50 in experiment [1] is 30.5 nM; in experiment [2], 5.9 nM; in experiment [3], 1.2 nM; in experiment [4], 249 nM.
For the compound `CCc1cc(O)ccc1-c1cc2[nH]ncc2c(N2CCc3ccc(S(=O)(=O)NCCN4CCCC4)cc3C2)n1` [Example 116, 2-[6-(2-ethyl-4-hydroxyphenyl)-1H-pyrazolo[4,3-c]pyridin-4-yl]-N-[2-(pyrrolidin-1-yl)ethyl]-1,2,3,4-tetrahydroisoquinoline-7-sulfonamide formate], the IC50 amounted to 23.3 nM in experiment [1], 10.1 nM in experiment [2], 3.8 nM in experiment [3] and 163 nM in experiment [4].
In the case of `CCN(c1ncc(C)cc1CNc1nc(-c2cc(F)c(O)cc2CC(F)(F)F)cc2[nH]nc(C(N)=O)c12)S(C)(=O)=O` [Example 87, 4-[({2-[ethyl(methylsulfonyl)amino]-5-methylpyridin-3-yl}methyl)amino]-6-[5-fluoro-4-hydroxy-2-(2,2,2-trifluoroethyl)phenyl]-1H-pyrazolo[4,3-c]pyridine-3-carboxamide], the half-inhibitory concentration (IC50) in experiment [1] amounted to 133 nM; in experiment [2], 87.8 nM; in experiment [3] it was 30.6 nM; in experiment [4], 2490 nM.
`CNC(=O)c1n[nH]c2cc(-c3cc(F)c(O)cc3CC(F)(F)F)nc(NCc3cc(Cl)ccc3N(C)S(C)(=O)=O)c12` [Example 15, 4-({5-chloro-2-[methyl(methyl-sulfonyl)amino]benzyl}amino)-6-[5-fluoro-4-hydroxy-2-(2,2,2-trifluoroethyl)phenyl]-N-methyl-1H-pyrazolo[4,3-c]pyridine-3-carboxamide]: the IC50 stood at 342 nM in experiment [1], 55 nM in experiment [2], 13.6 nM in experiment [3] and 618 nM in experiment [4].
On to `CNC(=O)c1n[nH]c2cc(-c3cc(F)c(O)cc3CC(F)(F)F)nc(NCc3ccccc3N(C)S(=O)(=O)c3cccc(O)c3)c12` [Example 32, 6-[5-Fluoro-4-hydroxy-2-(2,2,2-trifluoroethyl)phenyl]-4-[(2-{[(3-hydroxyphenyl)sulfonyl](methyl)amino}benzyl)amino]-N-methyl-1H-pyrazolo[4,3-c]pyridine-3-carboxamide], for which the IC50 in experiment [1] was 839 nM; in experiment [2], 277 nM; in experiment [3], 60.4 nM; in experiment [4] it was 373 nM.
On to `CNC(=O)c1n[nH]c2cc(-c3cc(F)c(O)cc3CC(F)(F)F)nc(NCc3ccccc3N(C)S(=O)(=O)c3cccnc3)c12` [Example 68, 6-[5-fluoro-4-hydroxy-2-(2,2,2-trifluoroethyl)phenyl]-N-methyl-4-({2-[methyl(pyridin-3-ylsulfonyl)amino]-benzyl}amino)-1H-pyrazolo[4,3-c]pyridine-3-carboxamide], for which the IC50 in experiment [1] amounted to 253 nM; in experiment [2] it was 72.7 nM; in experiment [3], 14.2 nM; in experiment [4], 72.3 nM.
For `CCN(c1ncc(Cl)cc1CNc1nc(-c2cc(F)c(O)cc2CC(F)(F)F)cc2[nH]nc(C(N)=O)c12)S(C)(=O)=O` [Example 71, 4-[({5-chloro-2-[ethyl(methylsulfonyl)amino]pyridin-3-yl}methyl)amino]-6-[5-fluoro-4-hydroxy-2-(2,2,2-trifluoroethyl)phenyl]-1H-pyrazolo[4,3-c]pyridine-3-carboxamide], the concentration for half-maximal inhibition (IC50) came to 359 nM in experiment [1], 156 nM in experiment [2], 44.1 nM in experiment [3] and 2750 nM in experiment [4].
Turning to `CN(c1ccccc1CNc1nc(-c2cc(F)c(O)cc2CC(F)(F)F)cc2[nH]ncc12)S(C)(=O)=O` [Example 148, N-{2-[({6-[5-Fluoro-4-hydroxy-2-(2,2,2-trifluoroethyl)phenyl]-1H-pyrazolo[4,3-c]pyridin-4-yl}amino)methyl]phenyl}-N-methylmethanesulfonamide], the IC50 was 22.8 nM in experiment [1], 6.3 nM in experiment [2], 1.8 nM in experiment [3] and 146 nM in experiment [4].
As for `CCc1cc(O)c(F)cc1-c1cc2[nH]nc(C(=O)NC)c2c(NCc2c(F)cccc2N(C)S(C)(=O)=O)n1` [Example 8, 6-(2-ethyl-5-fluoro-4-hydroxyphenyl)-4-({2-fluoro-6-[methyl(methyl-sulfonyl)amino]benzyl}amino)-N-methyl-1H-pyrazolo[4,3-c]pyridine-3-carboxamide], the IC50 is 33.8 nM in experiment [1], 7.5 nM in experiment [2], 1.7 nM in experiment [3] and 5.7 nM in experiment [4].
On to `CCN(c1ccc(Cl)cc1CNc1nc(-c2cc(F)c(O)cc2CC(F)(F)F)cc2[nH]nc(C(N)=O)c12)S(C)(=O)=O` [Example 84, 4-((5-chloro-2-(N-ethylmethylsulfonamido)benzyl)amino)-6-(5-fluoro-4-hydroxy-2-(2,2,2-trifluoro-ethyl)phenyl)-1H-pyrazolo[4,3-c]pyridine-3-carboxamide], for which the IC50 in experiment [1] was 537 nM; in experiment [2], 142 nM; in experiment [3], 27.6 nM; in experiment [4], 880 nM.
